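Compound exposure: 48 hours, 5 concentrations, 96-well plates. The concentration for 50% growth inhibition is given as GI50. TGI is the concentration that stops growth completely.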
Columns and labels:
Assay in all cases: NCI tumour cell line growth inhibition, 48 h
SF-268 CNS = test system: SF-268 CNS
KM12 colon = test system: KM12 colon
NCI-H23 lung = test system: NCI-H23 lung
UO-31 renal = test system: UO-31 renal
NCI/ADR-RES ovarian = test system: NCI/ADR-RES ovarian
BT-549 breast = test system: BT-549 breast
RPMI-8226 leukemia = test system: RPMI-8226 leukemia
RXF 393 renal = test system: RXF 393 renal
SK-MEL-28 melanoma = test system: SK-MEL-28 melanoma
786-0 renal = test system: 786-0 renal
HCT-116 colon = test system: HCT-116 colon
HOP-62 NSCLC = test system: HOP-62 NSCLC
EKVX NSCLC = test system: EKVX NSCLC
SW-620 colon = test system: SW-620 colon
OVCAR-4 ovarian = test system: OVCAR-4 ovarian
MALME-3M melanoma = test system: MALME-3M melanoma
SK-MEL-2 melanoma = test system: SK-MEL-2 melanoma
MDA-MB-231 breast = test system: MDA-MB-231 breast
HOP-92 NSCLC = test system: HOP-92 NSCLC
ACHN renal = test system: ACHN renal
SF-539 CNS = test system: SF-539 CNS
SNB-19 CNS = test system: SNB-19 CNS
SK-MEL-5 melanoma = test system: SK-MEL-5 melanoma
SNB-75 CNS = test system: SNB-75 CNS
NCI-H460 lung = test system: NCI-H460 lung
MDA-MB-435 = test system: MDA-MB-435
MOLT-4 leukemia = test system: MOLT-4 leukemia
SR leukemia = test system: SR leukemia
SN12C renal = test system: SN12C renal
UACC-257 melanoma = test system: UACC-257 melanoma
COLO 205 colon = test system: COLO 205 colon
HCT-15 colon = test system: HCT-15 colon
OVCAR-8 ovarian = test system: OVCAR-8 ovarian
IGROV1 ovarian = test system: IGROV1 ovarian
MCF7 breast = test system: MCF7 breast
T-47D breast = test system: T-47D breast
A498 renal = test system: A498 renal
DU-145 prostate = test system: DU-145 prostate
CCRF-CEM leukemia = test system: CCRF-CEM leukemia
K-562 leukemia = test system: K-562 leukemia
SF-295 CNS = test system: SF-295 CNS
TK-10 renal = test system: TK-10 renal
M14 melanoma = test system: M14 melanoma
A549 NSCLC = test system: A549 NSCLC
HT29 colon = test system: HT29 colon
CAKI-1 renal = test system: CAKI-1 renal
HS 578T breast = test system: HS 578T breast
OVCAR-5 ovarian = test system: OVCAR-5 ovarian
PC-3 prostate = test system: PC-3 prostate
U251 CNS = test system: U251 CNS
SK-OV-3 ovarian = test system: SK-OV-3 ovarian
HL-60(TB) leukemia = test system: HL-60(TB) leukemia
HCC-2998 colon = test system: HCC-2998 colon
UACC-62 melanoma = test system: UACC-62 melanoma

`C#C[C@]1(O)CC[C@H]2[C@@H]3CC=C4c5sc(Nc6cccc(F)c6)nc5CC[C@]4(C)[C@H]3CC[C@@]21C` showed a GI50 (SF-268 CNS) of 1620 nM, a TGI (SF-268 CNS) of 7500 nM and a GI50 (KM12 colon) of 1890 nM. It also gave a TGI (KM12 colon) of 5690 nM, a GI50 (NCI-H23 lung) of 1950 nM and a TGI (NCI-H23 lung) of 8420 nM. For the same compound, the GI50 (UO-31 renal) was 937 nM, the TGI (UO-31 renal) was 2790 nM and the GI50 (NCI/ADR-RES ovarian) was 2320 nM. The TGI (NCI/ADR-RES ovarian) was 7610 nM, the GI50 (BT-549 breast) was 456 nM and the TGI (BT-549 breast) was 3550 nM. It also gave a GI50 (RPMI-8226 leukemia) of 204 nM, a TGI (RPMI-8226 leukemia) of 615 nM and a GI50 (RXF 393 renal) of 65.3 nM. The TGI (RXF 393 renal) was 328 nM, the GI50 (SK-MEL-28 melanoma) was 500 nM and the TGI (SK-MEL-28 melanoma) was 2060 nM. It also gave a GI50 (786-0 renal) of 371 nM, a TGI (786-0 renal) of 2110 nM and a GI50 (HCT-116 colon) of 982 nM. The TGI (HCT-116 colon) was 2350 nM, the GI50 (HOP-62 NSCLC) was 2150 nM and the TGI (HOP-62 NSCLC) was 13600 nM. For the same compound, the GI50 (EKVX NSCLC) was 1650 nM, the TGI (EKVX NSCLC) was 15200 nM and the GI50 (SW-620 colon) was 1720 nM. The TGI (SW-620 colon) was 4500 nM, the GI50 (OVCAR-4 ovarian) was 2590 nM and the TGI (OVCAR-4 ovarian) was 16300 nM. It also gave a GI50 (MALME-3M melanoma) of 1490 nM, a TGI (MALME-3M melanoma) of 4710 nM and a GI50 (SK-MEL-2 melanoma) of 1100 nM. For the same compound, the TGI (SK-MEL-2 melanoma) was 4450 nM, the GI50 (MDA-MB-231 breast) was 1940 nM and the TGI (MDA-MB-231 breast) was 5490 nM. It also gave a GI50 (HOP-92 NSCLC) of 2190 nM, a TGI (HOP-92 NSCLC) of 7620 nM and a GI50 (ACHN renal) of 1350 nM. For the same compound, the TGI (ACHN renal) was 4220 nM, the GI50 (SF-539 CNS) was 221 nM and the TGI (SF-539 CNS) was 1060 nM. For the same compound, the GI50 (SNB-19 CNS) was 1490 nM, the TGI (SNB-19 CNS) was 3880 nM and the GI50 (SK-MEL-5 melanoma) was 1600 nM. It also gave a TGI (SK-MEL-5 melanoma) of 3220 nM, a GI50 (SNB-75 CNS) of 310 nM and a TGI (SNB-75 CNS) of 6080 nM. The GI50 (NCI-H460 lung) was 1160 nM, the TGI (NCI-H460 lung) was 3020 nM and the GI50 (MDA-MB-435) was 1650 nM. For the same compound, the TGI (MDA-MB-435) was 7500 nM, the GI50 (MOLT-4 leukemia) was 306 nM and the TGI (MOLT-4 leukemia) was 947 nM. For the same compound, the GI50 (SR leukemia) was 340 nM, the TGI (SR leukemia) was 2960 nM and the GI50 (SN12C renal) was 3330 nM. The TGI (SN12C renal) was 13100 nM, the GI50 (UACC-257 melanoma) was 2310 nM and the TGI (UACC-257 melanoma) was 17000 nM. It also gave a GI50 (COLO 205 colon) of 1830 nM, a TGI (COLO 205 colon) of 4630 nM and a GI50 (HCT-15 colon) of 1450 nM. It also gave a TGI (HCT-15 colon) of 4260 nM, a GI50 (OVCAR-8 ovarian) of 3040 nM and a TGI (OVCAR-8 ovarian) of 87200 nM. For the same compound, the GI50 (IGROV1 ovarian) was 1950 nM, the TGI (IGROV1 ovarian) was 7200 nM and the GI50 (MCF7 breast) was 963 nM. For the same compound, the TGI (MCF7 breast) was 3690 nM, the GI50 (T-47D breast) was 2140 nM and the TGI (T-47D breast) was 13800 nM. The GI50 (A498 renal) was 368 nM, the TGI (A498 renal) was 2030 nM and the GI50 (DU-145 prostate) was 1490 nM. It also gave a TGI (DU-145 prostate) of 3970 nM, a GI50 (CCRF-CEM leukemia) of 534 nM and a TGI (CCRF-CEM leukemia) of 4160 nM. The GI50 (K-562 leukemia) was 677 nM, the TGI (K-562 leukemia) was 3540 nM and the GI50 (SF-295 CNS) was 208 nM. The TGI (SF-295 CNS) was 499 nM, the GI50 (TK-10 renal) was 3760 nM and the TGI (TK-10 renal) was 15700 nM. The GI50 (M14 melanoma) was 1310 nM, the TGI (M14 melanoma) was 5870 nM and the GI50 (A549 NSCLC) was 2730 nM. It also gave a TGI (A549 NSCLC) of 20300 nM, a GI50 (HT29 colon) of 1520 nM and a TGI (HT29 colon) of 6060 nM. The GI50 (CAKI-1 renal) was 1030 nM, the TGI (CAKI-1 renal) was 10800 nM and the GI50 (HS 578T breast) was 364 nM. For the same compound, the TGI (HS 578T breast) was 3700 nM, the GI50 (OVCAR-5 ovarian) was 1760 nM and the TGI (OVCAR-5 ovarian) was 4470 nM. For the same compound, the GI50 (PC-3 prostate) was 659 nM, the TGI (PC-3 prostate) was 12300 nM and the GI50 (U251 CNS) was 821 nM. It also gave a TGI (U251 CNS) of 3880 nM, a GI50 (SK-OV-3 ovarian) of 1860 nM and a TGI (SK-OV-3 ovarian) of 10100 nM. For the same compound, the GI50 (HL-60(TB) leukemia) was 618 nM, the TGI (HL-60(TB) leukemia) was 2890 nM and the GI50 (HCC-2998 colon) was 2410 nM. For the same compound, the TGI (HCC-2998 colon) was 6460 nM, the GI50 (UACC-62 melanoma) was 1250 nM and the TGI (UACC-62 melanoma) was 3870 nM.
